T1: cyanovirin-N (CVN) (Nostoc ellipsosporum, UniProt P81180)
T1 sequence (P81180 1-101): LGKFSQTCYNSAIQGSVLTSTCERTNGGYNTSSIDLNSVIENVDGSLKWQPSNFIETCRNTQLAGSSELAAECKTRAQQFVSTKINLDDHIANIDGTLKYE

T2: CVN (Nostoc ellipsosporum, UniProt P81180)
T2 sequence (P81180 1-101): T1 sequence (P81180 1-101)

B1: CVN: HIV-inactivating 11 kDa protein from Nostoc ellipsosporum that binds high-mannose oligosaccharides of gp120 (protein, UniProt P81180 1-101, looked up)
Cyanovirin-N: T1 sequence (P81180 1-101)

Key:
[1] = biological target: T3, Concanavalin A (ConA) (Canavalia ensiformis, UniProt P02866)
[2] = biological target: T3, Concanavalin A (ConA); assay: Carbohydrate microarray incubated with FITC-labeled ConA, fluorescence scan; format: binding; conditions: FITC-ConA 25 μg mL^−1, 1 hour, room temperature; 120 μm spots on maleimide-BSA slide
From the text: Protein-carbohydrate interactions were examined using the mannose/glucose specific lectin Concanavalin A (ConA). Microarrays were constructed through the maleimide derivatization of BSA coated glass slides to create a thiol-reactive surface (FIG. 1). Thiol derivatized mannose and galactose were printed as 120 μm spots using a microarray printing robot. The remaining maleimide groups were subsequently quenched with a solution of 3-mercaptopropionic acid to render the slides unreactive to cysteine containing proteins. The carbohydrate microarrays were incubated with a solution of FITC-labeled ConA. The arrays were thoroughly rinsed with buffer, dried by centrifugation and scanned with a fluorescence slide scanner. […] Utilizing proteins conjugated to fluorophores of non-overlapping excitation and-emission spectra enabled facile two-color detection. […] See Bidlingmaier, S.; Synder, M. Chemistry and Biology 2002, 9, 400. […]
Detection of protein-carbohydrate interactions: In experiments involving FITC labeled ConA (Sigma), the lectin was used at 25 μg mL^−1 in 10 mM HEPES-BSA buffer (pH 7.5, 1 mM CaCl2, 1 mM MnCl2, 100 mM NaCl, 1% (w/v) BSA). […] To visualize fluorescence, the slides were scanned using an ArrayWoRx fluorescence slide scanner (Applied Precision).

[3] = biological target: T1, cyanovirin-N (CVN); assay: High-mannose oligosaccharide microarray incubated with BODIPY-labeled CVN, fluorescence scan; format: binding, Nostoc elliposporum; conditions: for BODIPY-labeled CVN fluorescence (binding) on immobilized saccharide spots: BODIPY-CVN 25 μg mL-1, 1 hour, room temperature, BSA coated slide; for CVN spot fluorescence intensity relative to nonamannoside (normalized to background): higher printed concentrations 1 mM-0.5 mM (FIG. 9)
Method: Using the aforementioned thiol terminated linker, a series of high-mannose oligosaccharides were prepared (Scheme 6). Arrays were printed on a BSA coated slide, as above, varying the concentration of printed oligosaccharide, and blocked with 3-mercaptoproprionic acid.
It was of interest to establish whether the microarray platform may serve to probe relative affinities of CVN for the different high-mannose structures. A microarray containing the four oligosaccharide structures was prepared with carbohydrate concentrations ranging from 0.008 mM to 2 mM. […] At lower dilutions, however, this trend is reversed. This discrepancy from the isocalorimetry data can be explained by the density of covalently immobilized saccharide at saturating concentrations. We hypothesize that the size of the nonasaccharide, compared to the other structures immobilized, might sterically occlude reactive sites leading to decreased amounts of immobilized structure. As previously observed, two distinct CVN binding domains can each interact with a single α1,2-linked linear trimannoside. We reason that a higher surface concentrations of 3 permits this multivalent interaction to take place.
Functionalization of slides: SuperAldehyde slides (TeleChem International) were immersed in 50 mL phosphate buffered saline (PBS) containing 1% bovine serum albumin (BSA; w/v) and incubated overnight at room temperature. The slides were rinsed twice with distilled H2O (100 mL), twice with 95% ethanol (50 mL) and then dried under a stream of dry Ar. Thereafter the slides were immersed in 45 mL of anhydrous DMF (Aldrich) containing 65 mg succinimidyl-4-(Nmaleimidomethyl)cyclohexane-1-carboxyiate. (Pierce Chemical) and 100 mM N,N-Diisopropylethylamine (Aldrich). The slides were incubated in this solution for 24 hours at room temperature, washed 4 times with 95% ethanol (50 mL) and then stored in a vacuum dessicator until used for microarray fabrication.
Microarray fabrication: Thiol functionalized carbohydrates were incubated 1 hr at room temperature with 1 equivalent tris-(carboxyethyl)phosphine hydrochloride (TCEP) in 1×PBS, and printed on the maleimide derivitized glass slides using a MicroGrid TAS array printer. Prints were performed at 30% humidity using either a 16-pin or 32-pin format, with a spot size of 120 μm and a distance of 300 μm between the centers of adjacent spots. Thereafter, the slides were stored in a humid chamber at room temperature for 12 hours, washed 2 times with distilled H2O, and then incubated for 1 hour in 1 mM 3-mercaptopropionic acid in PBS (50 mL) to quench all remaining maleimide groups. The slides were washed three times with distilled H2O (50 mL), two times with 95% ethanol (50 mL) and then stored in a vacuum dessicator until used for binding experiments.
Detection of protein-carbohydrate interactions: In experiments involving FITC labeled ConA (Sigma), the lectin was used at 25 μg mL^−1 in 10 mM HEPES-BSA buffer (pH 7.5, 1 mM CaCl2, 1 mM MnCl2, 100 mM NaCl, 1% (w/v) BSA). In experiments involving BODIPY-labeled CVN, the CVN was used at 25 μg mL-1 in 10 mM PBS containing 1% BSA. For all incubations, 0.55 mL of protein solution was applied to the slide using a PC500 CoverWell incubation chamber (Grace BioLabs). Following a 1 hour incubation at room temperature, the slides were washed three times with 50 mL of the same buffer used in the incubation, twice with 50 mL distilled H2O and then centrifuged at 200 g for 5 minutes to ensure complete dryness. To visualize fluorescence, the slides were scanned using an ArrayWoRx fluorescence slide scanner (Applied Precision).

[4] = biological target: cyanovirin N (CV-N) (Nostoc ellipsosporum, UniProt P81180); assay: Fiber optic microsphere array incubated with BODIPY-labeled CV-N; format: binding; conditions: CV-N 50 μg mL^−1, five minutes; excitation 488 nm
From the text: Five synthetic carbohydrates (1,3-6) were immobilized on microspheres carrying a unique internal code for each structure. A small aliquot of each of the five dispersions was mixed together and used to microsphere array.
At five minutes the CV-N solution was removed and replaced with a fresh buffer solution. BODIPY excitation wavelength (488 nm) was passed through the optical fiber and BODIPY emission wavelengths were collected on the CCD camera. Three of the five structures (3,5,6) present were bound by CV-N in accordance with isothermal microcalorimetry studies P. H. Seeberger et al. Chemistry and Biology 2002, 9, 1109.

[5] = biological target: T2, CVN; conditions: recent isothermocalorimetry and NMR study; read-out: Kd of CVN binding; cited from earlier work
[6] = test system: HIV strains; conditions: natural and recombinant forms of CVN; cited from earlier work
[7] = test system: host cells; conditions: natural and recombinant forms of CVN; cited from earlier work

| Molecule | BODIPY-labeled CVN fluorescence (binding) on immobilized saccharide spots [3] | BODIPY-labeled CV-N binding to oligosaccharide-bearing beads [4] | CVN spot fluorescence intensity relative to nonamannoside (normalized to background) [3] | Kd [5] [nM] | also measured |
| --- | --- | --- | --- | --- | --- |
| O=C[C@H](O)[C@@H](O)[C@@H](O)[C@H](O)CO [compound 2, galactose] | no binding activity | – | – | – | fluorescence of beads in dilution series of labeled ConA ([1]; labeled ConA 0 to 400 μg mL^−1, very high lectin concentrations (FIG. 18)): no increase in fluorescence; labeled ConA binding to saccharide-bearing beads (rhodamine fluorescence) ([1]; labeled ConA 50 μg mL^−1, five minutes): no ConA was observed; FITC-labeled ConA fluorescence on immobilized saccharide spots [2]: no fluorescence |
| hexamannoside [compound 5] | fluorescence was detected | bound by CV-N | higher fluorescence intensities than the nonamannoside | – | – |
| nonamannoside [compound 6] | fluorescence was detected | bound by CV-N | – | 270 | CVN fluorescence signal in dilution series microarray at low printed concentrations ([3]; printed carbohydrate 0.008 mM to 2 mM (FIG. 8)): showed discernable fluorescence at concentrations where the signals of the other structures were unobservable |
| linear trimannoside [compound 3] | fluorescence was detected | bound by CV-N | higher fluorescence intensities than the nonamannoside | 3480 | – |
| branched trimannoside [compound 4] | no binding activity | – | – | – | – |
| B1 | – | – | – | – | inactivation of HIV strains [6]: irreversibly inactivate a wide variety of HIV strains; toxicity to host cells [7]: minimal toxicity to host cells |

From patent US20050221337A1, “Microarrays and microspheres comprising oligosaccharides, complex carbohydrates or glycoproteins” (priority 2003, published 2005)
